# From US20230041211A1, “DECREASING TOXICITY OF TERPENES AND INCREASING THE PRODUCTION POTENTIAL IN MICRO-ORGANISMS” (BASF SE, priority 2019, published 2023)
# Read-outs that look alike come from different tables or passages of the source.
# Legend:
# [1] = cited from earlier work; for loqP: Table 3B
# [2] = test system: Escherichia coli, Saccharomyces cerevisae, Pseudomonas putida and Rhodobacter sphaeroides; assay: Toxicity of terpenes on unmodified organisms; details: all four organisms
# [3] = cited from earlier work
# [4] = test system: adapted E. coli strains (Isolate A to C, Mut T6 A); type: cell-based, Escherichia coli; details: Isobutanol 65 mM, Prenol 40 mM, Butanol 7.5 g/L, Vanillin 1 g/L; Geraniol concentration not given
# Protocol: To investigate the mode of action of the tolerance trait, chemicals with similar properties were tested.
# To assess the limitations of the tolerance mechanism, tolerance against three additional chemicals was tested.
# (§1) On the next day 25 mL of medium in 250 mL baffled flasks with Teflon® liner screw cabs were inoculated to an OD of 0.2 and incubated at 200 rpm. The terpenoid stress was added to the specified concentration. Before the cell-culture reached stationary phase, part of the culture was transferred to fresh medium in a fresh flask with the terpenoid. The mean culture growth rate was determined by comparing the initial OD and the culture OD before passaging.
# (§2) Growth rates were determined by transforming the OD-values of each experiment with the natural logarithm. In the linear regime of growth a line was fit to the data and the slope was determined, which is equal to the growth rate. Growth rates were determined for each flask individually and the growth rate of each condition is given as the mean and standard deviation of three biological replicates.
# E. coli MG1655 wild-type [5] = assay: Toxicity assay: growth rate of wild-type E. coli in M9 medium with the chemical in sealed baffled flasks; type: cell-based, Escherichia coli
# Protocol: The tolerance against Isoprenol was confirmed with the established toxicity assay of growth in M9 medium with Isoprenol in baffled sealed 250 mL flasks. To investigate the mode of action of the tolerance trait, chemicals with similar properties were tested.
# as §1, §2
# A linear interpolation of the two data-points adjacent to the half-maximal growth rate (MIC50) was used to estimate the compound concentration of half-maximal growth rate. If the corresponding standard-deviations of the growth rates were available the standard error of the MIC50 was computed by error propagation.
# [6] = test system: engineered E. coli strains (ΔyghB, ΔmarC, Δrob, rob H48fs); type: cell-based, Escherichia coli
# Description: We began the investigation of the mutations discovered in the final phenotype by testing the knock-out strains of the most promising gene-targets from the readily available Keio collection. The Keio collection is implemented in the BW25113 background which we subsequently used as reference for tolerance testing when using strains derived from the Keio collection. Compared to MG1655 the BW25113 strain is auxotroph for arabinose and rhamnose. Since glucose is the sole carbon source in our growth-assays this should not impact the physiology of tolerance.
# Knock-out strains were constructed by amplification of resistance cassette with 25 bp overlap from corresponding Keio strains (Primers 3+4, 5+6 and 7+8). The PCR products carrying a homologous 25 bp sequence and a kanamycin resistance were used to transform E. coli MG1655 using standard procedures (Baba et al., 2006). For over-expression plasmids target genes were amplified with a 25 bp homology to the pAH030 overexpression plasmid. The Plasmid was linearized using the Spel restriction site and the PCR-product containing the gene of interested was inserted using Gibson assembly (Gibson et al., 2009).
# Knock out strains were prepared using DNA-fragments isolated from the corresponding Keio collection strains. Recombination was carried out using a standard RED/ET kit (Genebridges Red/ET Kit, 2019).
# as §2
# [7] = test system: Escherichia coli, Saccharomyces cerevisae, Pseudomonas putida and Rhodobacter sphaeroides
# E. coli MG1655 wild-type [8] = details: cited from earlier work
compound,measurement,setting,value
"C=C(C)C1CC=C(C)C(=O)C1 (single isomer, unassigned; (-)) [(-)-Carvone]",loqP,[1],2.71
CC(=O)CCc1ccc(O)cc1 [4-(4-Hydroxyphenyl)-2-butanone],loqP,[1],1.5
CC(C)=CCCC(C)=CC=O [Citral],toxicity on unmodified organisms,[2],toxic effects
same,loqP,[1],2.9
CCOC(=O)CC [Ethyl Propionate],loqP,[1],1.21
CCCC(=O)OCC [Ethyl butanoate],loqP,[1],1.77
CC(C)=CCCC(C)=CCCC(C)=CCO [Farnesol],loqP,[1],4.16
same,Solubility,"[3]; solubility in water, Table 3B",50 µg/mL
CC(C)=CCC/C(C)=C/CO [Geraniol],toxicity on unmodified organisms,[2],toxic effects
same,tolerance of adapted strains compared to wild-type,[4],highly elevated susceptibility
same,Solubility,"[3]; solubility in water, Table 3B",680 µg/mL
CC(C)CO [Isobutanol],tolerance of adapted strains compared to wild-type,[4],All strains exhibit an increased tolerance
same,EC50,"E. coli MG1655 wild-type [5]; Escherichia coli, MG1655, wild-type strain, read-out: concentration where growth is 50% inhibited (EC50), half maximal inhibitory concentration",65 mM
same,loqP,[1],0.8
"C=C(C)CCO [Isoprenol, 3-methyl-3-buten-1-ol]",toxicity on unmodified organisms,[2],toxic effects
same,growth of wild-type E. coli cells,E. coli MG1655 wild-type [5]; 60 to 80 mM Isoprenol concentration regime,not able to grow
same,loqP,[1],0.89
same,logP,[1]; Table A,0.89
same,Solubility,[3]; Table A,90000 µg/mL
same,Solubility,"[3]; solubility in water, Table 3B",90000 µg/mL
same,decrease of fitness,"[6]; ΔyghB strain of the Keio collection (BW25113), Isoprenol stress",about 30%
C=C(C)[C@H]1CC=C(C)CC1 [Limonene],loqP,[1],4.571
C=CC(C)(O)CCC=C(C)C (centres unmarked) [Linalool],Solubility,"[3]; solubility in water, Table 3B",1500 µg/mL
CC1CCC(C(C)C)C(O)C1 (centres unmarked) [Menthol],toxicity on unmodified organisms,[7],toxic effects
same,loqP,[1],3.2
CC(C)=CCO [Prenol],tolerance of adapted strains compared to wild-type,[4],only strain isolate A exhibited an increased tolerance
same,EC50,"E. coli MG1655 wild-type [5]; wild-type strain, read-out: concentration where growth is 50% inhibited (EC50), half maximal inhibitory concentration",40 mM
same,loqP,[1],0.91
COc1cc(C(=O)O)ccc1O [Vanillic Acid],loqP,[1],1.43
COc1cc(C=O)ccc1O [Vanillin],tolerance of adapted strains compared to wild-type,[4],significantly increased growth rate
same,Wild-type growth rate,E. coli MG1655 wild-type [5]; 1.5 g/L Vanillin (FIG. 10B),0.23 h⁻¹
same,EC50,"E. coli MG1655 wild-type [5]; Escherichia coli, MG1655, wild-type E. coli, own experimental set-up, read-out: experimental EC50 / half-maximal growth repression",1000 to 1500 µg/mL
same,growth rate reduced to fraction of wild-type growth rate (no complete growth inhibition),"E. coli MG1655 wild-type [5]; wild-type E. coli MG1655, concentration regime tested (FIG. 10A)",⅓
same,Solubility,"[3]; solubility in water, Table 3B",10000 µg/mL
same,effect of marC knock-out under Vanillin stress,"[6]; ΔmarC, 1.5 g/L Vanillin",no significant positive effect
same,increase of tolerance compared to wild-type,"[6]; Δrob complemented with rob H48fs, 1.5 g/L Vanillin",36%
same,increased growth rate,"[6]; Δrob rob H48fs plus marC knock-out, 1.5 g/L Vanillin",28%
same,increase of growth rate,"[6]; Δrob, 1.5 g/L Vanillin",8%
same,additional faster growth,"[6]; ΔyghB complemented with yghB expression, versus ΔyghB, 1.5 g/L Vanillin",3%
same,increase of growth rate,"[6]; ΔyghB, 1.5 g/L Vanillin",18%
Butanol,tolerance of adapted strains compared to wild-type,[4],increased tolerance
same,Wild-type growth rate,E. coli MG1655 wild-type [5]; 5 g/L Butanol (FIG. 9B),0.25 h⁻¹
same,experimental EC50 / half-maximal growth repression,"E. coli MG1655 wild-type [5]; wild-type E. coli, own experimental set-up",~5000 µg/mL
same,literature value for half-maximal concentration,E. coli MG1655 wild-type [8],7.5 g/L
same,increased growth rate,"[6]; double knock out rob and marC with rob H48fs expression, 5 g/L Butanol",41%
same,increase of tolerance (growth rate vs wild-type),"[6]; ΔmarC, 5 g/L Butanol",32%
same,increase of tolerance (growth rate vs wild-type),"[6]; Δrob with leaky rob H48frameshift expression, 5 g/L Butanol",34%
same,increase of tolerance (growth rate vs wild-type),"[6]; Δrob, 5 g/L Butanol",about 25%
same,increase of relative fitness,"[6]; ΔyghB complemented with yghB plasmid, 0 μM IPTG, 5 g/L Butanol",about 11%
same,effect of yghB knock-out on tolerance,"[6]; ΔyghB, 5 g/L Butanol",decreases tolerance
